From patent US8466145B2, “Dipeptidyl peptidase IV inhibitors” (Orchid Chemicals & Pharmaceuticals Limited, priority 2009, dated 2013)

Key:
[1] = target: T1, human recombinant Dipeptidyl peptidase IV enzyme (hrDPP IV) (Homo sapiens, UniProt P27487); assay: DPP IV assay, cleavage of H-Gly-Pro-AMC by human recombinant DPP-IV enzyme; format: biochemical; conditions: for inhibition at 0.3 µM: 300 nM compound concentration
T1 construct: purchased R&D systems
Method: DPP IV activity was determined by the cleavage rate of 7-amino 4-methylcoumarin (AMC) from the substrate H-Gly-Pro-AMC. In brief, the assay was conducted by adding 3 ng of human recombinant Dipeptidyl peptidase IV enzyme (hrDPP IV, available commercially from R&D systems) in 70 μL of the assay buffer (25 mM HEPES, 140 mM NaCl and 1% BSA, pH 7.8) to a 96 well black flat bottom microtitre plate. Test compounds were added as 10 μL additions to all wells except blank and total activity wells. After incubation of test substance with enzyme for 60 minutes at room temperature, 10 μL of 100 μM substrate H-Gly-Pro-AMC was added. After mixing, the plate was left for 20 minutes at room temperature. Then the reaction was terminated by addition of 10 μL of 25% glacial acetic acid. Fluorescence was measured using Spectra Max Gemini XS (Molecular Devices, USA) at an excitation filter of 360 nm and emission filter of 460 nm.
Test compounds dissolved in DMSO were diluted with assay buffer at different concentrations and tested in duplicates. Percentage inhibition was calculated with respect to total activity. IC50 value was calculated using Prism Software.

T1 sequence (P27487 whole entry): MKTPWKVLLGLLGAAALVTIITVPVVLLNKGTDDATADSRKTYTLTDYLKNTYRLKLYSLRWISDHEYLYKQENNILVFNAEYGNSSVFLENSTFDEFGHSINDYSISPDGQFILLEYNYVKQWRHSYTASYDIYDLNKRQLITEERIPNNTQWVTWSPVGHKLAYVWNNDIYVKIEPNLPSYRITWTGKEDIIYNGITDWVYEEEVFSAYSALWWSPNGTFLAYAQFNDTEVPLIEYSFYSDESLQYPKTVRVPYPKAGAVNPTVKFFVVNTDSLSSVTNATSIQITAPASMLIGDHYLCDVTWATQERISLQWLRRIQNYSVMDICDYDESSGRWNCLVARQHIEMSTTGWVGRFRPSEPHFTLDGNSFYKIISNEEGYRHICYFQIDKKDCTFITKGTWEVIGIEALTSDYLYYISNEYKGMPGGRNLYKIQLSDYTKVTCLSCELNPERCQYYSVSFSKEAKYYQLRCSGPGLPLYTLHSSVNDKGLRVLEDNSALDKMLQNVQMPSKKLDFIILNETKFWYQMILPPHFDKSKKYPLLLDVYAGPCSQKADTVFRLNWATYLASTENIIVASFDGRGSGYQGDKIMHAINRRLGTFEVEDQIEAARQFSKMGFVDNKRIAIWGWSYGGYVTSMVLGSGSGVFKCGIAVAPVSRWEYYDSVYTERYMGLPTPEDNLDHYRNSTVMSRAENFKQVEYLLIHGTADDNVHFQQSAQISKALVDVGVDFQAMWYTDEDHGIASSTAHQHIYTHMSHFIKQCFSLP

SMILES	melting point [°C]	IC50 [1] [µM]	inhibition at 0.3 µM [1] [%]
CC1(C)[C@@H](Cn2nccn2)CC[C@@]1(C)NCC(=O)N1C[C@@H](F)C[C@H]1C#N [Example 10, (2S,4S)-1-(2-((1R,3S)-3-((2H-1,2,3-Triazol-2-yl)methyl)-1,2,2-trimethylcyclopentylamino)acetyl)-4-fluoropyrrolidine-2-carbonitrile]	84 to 87	0.215	
CC1(C)[C@H](Cn2nccn2)CC[C@]1(C)NCC(=O)N1C[C@@H](F)C[C@H]1C#N [Example 12, (2S,4S)-1-(2-((1S,3R)-3-((2H-1,2,3-Triazol-2-yl)methyl)-1,2,2-trimethylcyclopentylamino)acetyl)-4-fluoropyrrolidine-2-carbonitrile]	142 to 144	0.0372 ± 0.00367	
CC1(C)[C@@H](Cn2cc(CO)nn2)CC[C@@]1(C)NCC(=O)N1C[C@@H](F)C[C@H]1C#N [Example 15, (2S,4S)-4-Fluoro-1-(2-((1R,3S)-3-((4-(hydroxymethyl)-1H-1,2,3-triazol-1-yl)methyl)-1,2,2-trimethyleyclopentylamino)acetyl)pyrrolidine-2-carbonitrile]	240 to 279		60.5
CC1(C)[C@H](Cn2cc(CO)nn2)CC[C@]1(C)NCC(=O)N1C[C@@H](F)C[C@H]1C#N [Example 16, (2S,4S)-4-Fluoro-1-(2-((1S,3R)-3-((4-(hydroxymethyl)-1H-1,2,3-triazol-1-yl)methyl)-1,2,2-trimethylcyclopentylamino)acetyl)pyrrolidine-2-carbonitrile]	76 to 78	0.0325	
CC1(C)[C@H](CNS(C)(=O)=O)CC[C@]1(C)NCC(=O)N1C[C@@H](F)C[C@H]1C#N [Example 18, N-(((1R,3S)-3-(2-((2S,4S)-2-Cyano-4-fluoropyrrolidin-1-yl)-2-oxoethylamino)-2,2,3-trimethylcyclopentyl)methyl)methanesulfonamide]	154 to 157		84.9
CC1(C)[C@H](CNS(=O)(=O)c2ccc(F)cc2)CC[C@]1(C)NCC(=O)N1C[C@@H](F)C[C@H]1C#N [Example 20]	75 to 78	0.105	
CC1(C)[C@@H](CNC(=O)C2CCC(F)(F)CC2)CC[C@@]1(C)NCC(=O)N1C[C@@H](F)C[C@H]1C#N [Example 22, N-(((1S,3R)-3-(2-((2S,4S)-2-Cyano-4-fluoropyrrolidin-1-yl)-2-oxoethylamino)-2,2,3-trimethylcyclopentyl)methyl)-4,4-difluorocyclohexane carboxamide]	193 to 195		72.7
CC1(C)[C@H](CNC(=O)C2CCC(F)(F)CC2)CC[C@]1(C)NCC(=O)N1C[C@@H](F)C[C@H]1C#N [Example 23, N-(((1R,3S)-3-(2-((2S,4S)-2-Cyano-4-fluoropyrrolidin-1-yl)-2-oxoethylamino)-2,2,3-trimethylcyclopentyl)methyl)-4,4-difluorocyclohexane carboxamide]	189 to 194		86.2
CC1(C)[C@@H](CNc2ncccc2C#N)CC[C@@]1(C)NCC(=O)N1C[C@@H](F)C[C@H]1C#N [Example 26, 2-(((1S,3R)-3-(2-((2S,4S)-2-Cyano-4-fluoropyrrolidin-1-yl)-2-oxoethylamino)-2,2,3-trimethylcyclopentyl)methylamino)nicotinonitrile]	96 to 99		63.2
CC1(C)[C@@H](CNc2ccc(C(F)(F)F)cn2)CC[C@@]1(C)NCC(=O)N1C[C@@H](F)C[C@H]1C#N [Example 27, (2S,4S)-4-Fluoro-1-(2-((1R,3S)-1,2,2-trimethyl-3-((5-(trifluoromethyl)pyridin-2-ylamino)methyl)cyclopentylamino)acetyl)pyrrolidine-2-carbonitrile]	52 to 58		47.4
CC1(C)[C@@H](CN2CCCS2(=O)=O)CC[C@@]1(C)NCC(=O)N1C[C@@H](F)C[C@H]1C#N [Example 28, (2S,4S)-1-(2-((1R,3S)-3-[(1,1-Dioxidoisothiazolidin-2-yl)methyl]-1,2,2-trimethylcyclopentylamino)acetyl)-4-fluoropyrrolidine-2-carbonitrile]	126 to 128	0.183	
CC1(C)[C@@H](CN2CCCC2)CC[C@@]1(C)NCC(=O)N1C[C@@H](F)C[C@H]1C#N [Example 36, (2S,4S)-4-Fluoro-1-(2-((1R,3S)-1,2,2-trimethyl-3-(pyrrolidin-1-ylmethyl)cyclopentylamino)acetyl)pyrrolidine-2-carbonitrile]	108 to 112		31.9
CC1(C)[C@H](CN2CCCC2)CC[C@]1(C)NCC(=O)N1C[C@@H](F)C[C@H]1C#N [Example 37, (2S,4S)-4-Fluoro-1-(2-((1S,3R)-1,2,2-trimethyl-3-(pyrrolidin-1-ylmethyl)cyclopentylamino)acetyl)pyrrolidine-2-carbonitrile]	123 to 126	0.0224	
CC1(C)[C@@H](CN2CC[C@@H](O)C2)CC[C@@]1(C)NCC(=O)N1C[C@@H](F)C[C@H]1C#N [Example 38, (2S,4S)-4-fluoro-1-(2-((1R,3S)-3-(((R)-3-hydroxypyrrolidin-1-yl)methyl)-1,2,2-trimethylcyclopentylamino)acetyl)pyrrolidine-2-carbonitrile]	130 to 135		42.6
CC1(C)[C@@H](CN2CCCCC2)CC[C@@]1(C)NCC(=O)N1C[C@@H](F)C[C@H]1C#N [Example 39, (2S,4S)-4-Fluoro-1-(2-((1R,3S)-1,2,2-trimethyl-3-(piperidin-1-ylmethyl)cyclopentylamino)acetyl)pyrrolidine-2-carbonitrile]	100 to 103		45.9
CC1(C)[C@@H](CS(=O)(=O)c2ccc(S(C)(=O)=O)cc2)CC[C@@]1(C)NCC(=O)N1C[C@@H](F)C[C@H]1C#N [Example 42, (2S,4S)-4-Fluoro-1-(2-((1R,3S)-1,2,2-trimethyl-3-((4-(methylsulfonyl)phenylsulfonyl)methyl)cyclopentylamino)acetyl)pyrrolidine-2-carbonitrile]	220 to 224	0.0913	
CC1(C)[C@@H](CS(=O)(=O)c2ccc(S(C)(=O)=O)cc2)CC[C@@]1(C)NCC(=O)N1CCC[C@H]1C#N [Example 44, (S)-1-(2-((1R,3S)-1,2,2-Trimethyl-3-((4-(methylsulfonyl)phenylsulfonyl)methyl)cyclopentylamino)acetyl)pyrrolidine-2-carbonitrile]	162 to 166	0.582	
CC1(C)[C@H](CS(=O)(=O)c2ccc(S(C)(=O)=O)cc2)CC[C@]1(C)NCC(=O)N1CCC[C@H]1C#N [Example 46, (S)-1-(2-((1S,3R)-1,2,2-Trimethyl-3-((4-(methylsulfonyl)phenylsulfonyl)methyl)cyclopentylamino)acetyl)pyrrolidine-2-carbonitrile]	158 to 160		40.9
Cc1noc([C@H]2CC[C@@](C)(NCC(=O)N3C[C@@H](F)C[C@H]3C#N)C2(C)C)n1 [Example 50, (2S,4S)-4-Fluoro-1-(2-((1R,3S)-1,2,2-trimethyl-3-(3-methyl-1,2,4-oxadiazol-5-yl)cyclopentylamino)acetyl)pyrrolidine-2-carbonitrile]	147 to 151		15
Cc1noc([C@@H]2CC[C@](C)(NCC(=O)N3C[C@@H](F)C[C@H]3C#N)C2(C)C)n1 [Example 51, (2S,4S)-4-Fluoro-1-(2-((1S,3R)-1,2,2-trimethyl-3-(3-methyl-1,2,4-oxadiazol-5-yl)cyclopentylamino)acetyl)pyrrolidine-2-carbonitrile]	160 to 163	0.0914	
Cc1nc(C[C@H]2CC[C@@](C)(NCC(=O)N3C[C@@H](F)C[C@H]3C#N)C2(C)C)no1 [Example 54, (2S,4S)-4-Fluoro-1-(2-((1R,3R)-1,2,2-trimethyl-3-((5-methyl-1,2,4-oxadiazol-3-yl)methyl)cyclopentylamino)acetyl)pyrrolidine-2-carbonitrile]	121 to 123		64.9
CC(C)(C)c1nc(C[C@@H]2CC[C@](C)(NCC(=O)N3C[C@@H](F)C[C@H]3C#N)C2(C)C)no1 [Example 58, (2S,4S)-1-(2-((1S,3S)-3-((5-tert-Butyl-1,2,4-oxadiazol-3-yl)methyl)-1,2,2-trimethylcyclopentylamino)acetyl)-4-fluoropyrrolidine-2-carbonitrile]	152 to 154		91.4
CC1(C)[C@H](Cc2noc(C3CCCCC3)n2)CC[C@]1(C)NCC(=O)N1C[C@@H](F)C[C@H]1C#N [Example 59, (2S,4S)-1-(2-((1S,3S)-3-((5-Cyclohexyl-1,2,4-oxadiazol-3-yl)methyl)-1,2,2-trimethylcyclopentylamino)acetyl)-4-fluoropyrrolidine-2-carbonitrile]	152 to 153		67.7
